Results from the kinase profiling compilation of Christmann-Franck et al. (2016).
Values joined by “and” are separate entries in the source; they are usually repeats but may differ in a detail not shown here. Equal values may be shown once.

Assays:
Assay in all cases: radiometric filter-binding kinase assay, Kinase HotSpot
Settings in all cases: compound 0.5 µM; ATP 10 µM
ACVR1B (human) = ACVR1B (human) (UniProt P36896)
AKT1 (human) = AKT1 (human) (UniProt P31749)
AXL (human) = AXL (human) (UniProt P30530)
CAMK1G (human) = CAMK1G (human) (UniProt Q96NX5)
CAMK2A (human) = CAMK2A (human) (UniProt Q9UQM7)
CAMK2B (human) = CAMK2B (human) (UniProt Q13554)
CAMK4 (human) = CAMK4 (human) (UniProt Q16566)
CDC42BPB (human) = CDC42BPB (human) (UniProt Q9Y5S2)
CSNK2A1 (human) = CSNK2A1 (human) (UniProt P68400)
CSNK2A1 (human), sequence (P68400 whole entry, looked up): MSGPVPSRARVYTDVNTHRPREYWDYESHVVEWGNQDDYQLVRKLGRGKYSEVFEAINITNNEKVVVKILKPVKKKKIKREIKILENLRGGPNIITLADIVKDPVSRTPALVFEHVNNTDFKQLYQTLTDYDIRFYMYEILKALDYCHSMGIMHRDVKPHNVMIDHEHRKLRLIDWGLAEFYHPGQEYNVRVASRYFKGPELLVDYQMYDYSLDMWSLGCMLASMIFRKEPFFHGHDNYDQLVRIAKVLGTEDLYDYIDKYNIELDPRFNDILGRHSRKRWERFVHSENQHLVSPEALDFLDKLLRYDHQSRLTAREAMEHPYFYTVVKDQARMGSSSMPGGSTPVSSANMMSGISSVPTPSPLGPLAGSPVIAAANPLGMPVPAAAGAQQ

DAPK3 (human) = DAPK3 (human) (UniProt O43293)
GSK3A (human) = GSK3A (human) (UniProt P49840)
GSK3B (human) = GSK3B (human) (UniProt P49841)
JAK3 JH1 JH2 (human) = JAK3 JH1 JH2 (human) (UniProt P52333)
KDR (human) = KDR (human) (UniProt P35968)
LTK (human) = LTK (human) (UniProt P29376)
MAP2K2 (human) = MAP2K2 (human) (UniProt P36507)
MAPK12 (human) = MAPK12 (human) (UniProt P53778)
MAPK3 (human) = MAPK3 (human) (UniProt P27361)
MAPK8 (human) = MAPK8 (human) (UniProt P45983)
MAPK8 (human), sequence (P45983 whole entry, looked up): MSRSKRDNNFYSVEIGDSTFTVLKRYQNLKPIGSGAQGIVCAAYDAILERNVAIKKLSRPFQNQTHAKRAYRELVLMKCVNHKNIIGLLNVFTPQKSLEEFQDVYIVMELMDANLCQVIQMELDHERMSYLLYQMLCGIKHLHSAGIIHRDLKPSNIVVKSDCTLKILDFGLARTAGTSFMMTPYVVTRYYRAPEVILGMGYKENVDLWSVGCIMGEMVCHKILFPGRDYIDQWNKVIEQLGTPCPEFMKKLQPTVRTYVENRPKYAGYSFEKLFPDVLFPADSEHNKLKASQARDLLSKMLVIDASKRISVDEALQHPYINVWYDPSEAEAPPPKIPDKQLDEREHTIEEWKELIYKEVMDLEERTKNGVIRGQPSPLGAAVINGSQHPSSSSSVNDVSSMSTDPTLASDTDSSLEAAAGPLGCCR

MAPKAPK3 (human) = MAPKAPK3 (human) (UniProt Q16644)
MAPKAPK3 (human), sequence (Q16644 whole entry, looked up): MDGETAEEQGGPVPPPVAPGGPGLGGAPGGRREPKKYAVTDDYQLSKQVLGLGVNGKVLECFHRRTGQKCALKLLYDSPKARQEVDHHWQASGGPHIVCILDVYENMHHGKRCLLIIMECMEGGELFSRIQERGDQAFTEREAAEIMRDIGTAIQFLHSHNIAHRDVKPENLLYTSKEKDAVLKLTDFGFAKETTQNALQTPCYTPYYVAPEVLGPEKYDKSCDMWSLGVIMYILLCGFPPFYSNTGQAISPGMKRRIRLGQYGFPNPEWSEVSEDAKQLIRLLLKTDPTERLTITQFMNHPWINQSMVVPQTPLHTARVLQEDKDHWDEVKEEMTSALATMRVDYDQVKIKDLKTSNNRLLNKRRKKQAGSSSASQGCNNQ

MARK3 (human) = MARK3 (human) (UniProt P27448)
MST4 (human) = MST4 (human) (UniProt Q9P289)
NEK4 (human) = NEK4 (human) (UniProt P51957)
NTRK1 (human) = NTRK1 (human) (UniProt P04629)
NTRK3 (human) = NTRK3 (human) (UniProt Q16288)
NTRK3 (human), sequence (Q16288 whole entry, looked up): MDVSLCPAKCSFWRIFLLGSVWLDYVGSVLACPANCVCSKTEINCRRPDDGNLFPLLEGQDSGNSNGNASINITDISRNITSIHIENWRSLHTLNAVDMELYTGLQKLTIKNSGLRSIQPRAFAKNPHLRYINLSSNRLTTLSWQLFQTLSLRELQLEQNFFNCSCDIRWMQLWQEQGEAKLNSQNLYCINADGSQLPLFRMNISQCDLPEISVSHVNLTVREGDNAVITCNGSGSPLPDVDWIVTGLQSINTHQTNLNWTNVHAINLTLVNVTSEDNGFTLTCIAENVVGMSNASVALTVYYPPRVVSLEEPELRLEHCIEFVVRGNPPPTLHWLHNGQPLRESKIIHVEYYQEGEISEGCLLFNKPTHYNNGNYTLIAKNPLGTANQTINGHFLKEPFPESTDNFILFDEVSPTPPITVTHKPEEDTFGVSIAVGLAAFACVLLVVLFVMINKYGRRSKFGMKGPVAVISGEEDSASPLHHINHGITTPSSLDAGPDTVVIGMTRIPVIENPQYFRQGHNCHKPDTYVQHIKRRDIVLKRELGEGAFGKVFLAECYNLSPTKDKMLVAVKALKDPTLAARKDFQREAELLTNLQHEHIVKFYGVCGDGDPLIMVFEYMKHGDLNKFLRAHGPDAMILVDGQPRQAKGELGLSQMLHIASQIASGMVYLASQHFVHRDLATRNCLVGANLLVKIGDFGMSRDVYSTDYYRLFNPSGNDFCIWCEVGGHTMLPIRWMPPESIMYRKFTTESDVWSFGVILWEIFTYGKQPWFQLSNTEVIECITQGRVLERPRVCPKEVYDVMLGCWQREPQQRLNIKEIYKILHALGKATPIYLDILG

NUAK2 (human) = NUAK2 (human) (UniProt Q9H093)
NUAK2 (human), sequence (Q9H093 whole entry, looked up): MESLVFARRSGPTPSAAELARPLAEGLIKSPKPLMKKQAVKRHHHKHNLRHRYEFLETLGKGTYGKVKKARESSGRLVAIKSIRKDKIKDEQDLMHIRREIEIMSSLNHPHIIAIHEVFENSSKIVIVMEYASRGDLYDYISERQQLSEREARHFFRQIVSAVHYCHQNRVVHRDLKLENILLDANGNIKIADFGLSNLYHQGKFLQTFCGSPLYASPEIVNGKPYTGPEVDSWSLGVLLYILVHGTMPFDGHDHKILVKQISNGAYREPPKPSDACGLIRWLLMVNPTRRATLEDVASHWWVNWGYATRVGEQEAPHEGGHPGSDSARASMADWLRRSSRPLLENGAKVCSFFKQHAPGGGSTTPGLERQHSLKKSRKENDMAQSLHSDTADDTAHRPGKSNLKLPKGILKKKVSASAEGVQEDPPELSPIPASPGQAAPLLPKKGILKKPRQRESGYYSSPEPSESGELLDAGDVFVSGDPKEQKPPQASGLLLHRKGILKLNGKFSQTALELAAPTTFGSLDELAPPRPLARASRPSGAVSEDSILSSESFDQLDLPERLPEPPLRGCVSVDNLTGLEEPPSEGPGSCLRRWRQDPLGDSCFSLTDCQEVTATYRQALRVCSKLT

PAK7 (human) = PAK7 (human) (UniProt Q9P286)
PAK7 (human), sequence (Q9P286 whole entry, looked up): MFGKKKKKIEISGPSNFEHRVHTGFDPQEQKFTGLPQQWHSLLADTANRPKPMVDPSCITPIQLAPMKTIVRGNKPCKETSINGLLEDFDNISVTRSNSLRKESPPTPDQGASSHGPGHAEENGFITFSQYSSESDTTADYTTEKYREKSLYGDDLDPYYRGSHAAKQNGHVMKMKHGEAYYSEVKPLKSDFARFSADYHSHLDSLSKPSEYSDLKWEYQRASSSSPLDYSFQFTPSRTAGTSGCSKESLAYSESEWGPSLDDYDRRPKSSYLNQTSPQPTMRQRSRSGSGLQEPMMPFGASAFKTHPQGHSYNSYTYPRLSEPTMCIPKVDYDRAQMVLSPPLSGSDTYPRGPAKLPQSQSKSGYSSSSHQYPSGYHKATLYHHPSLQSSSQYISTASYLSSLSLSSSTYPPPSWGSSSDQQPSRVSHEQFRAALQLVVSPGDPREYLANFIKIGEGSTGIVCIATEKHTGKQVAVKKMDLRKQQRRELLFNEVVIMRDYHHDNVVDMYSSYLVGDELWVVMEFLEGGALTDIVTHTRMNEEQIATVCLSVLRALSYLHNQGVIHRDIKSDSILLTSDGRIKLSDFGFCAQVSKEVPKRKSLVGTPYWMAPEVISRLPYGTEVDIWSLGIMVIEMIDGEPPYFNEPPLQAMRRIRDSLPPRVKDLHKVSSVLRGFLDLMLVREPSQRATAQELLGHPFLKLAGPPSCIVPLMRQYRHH

PLK3 (human) = PLK3 (human) (UniProt Q9H4B4)
PRKACA (human) = PRKACA (human) (UniProt P17612)
PRKCB2 (human) = PRKCB2 (human) (UniProt P05771)
PRKG1 (human) = PRKG1 (human) (UniProt Q13976)
PTK2 (human) = PTK2 (human) (UniProt Q05397)
PTK2 (human), sequence (Q05397 whole entry, looked up): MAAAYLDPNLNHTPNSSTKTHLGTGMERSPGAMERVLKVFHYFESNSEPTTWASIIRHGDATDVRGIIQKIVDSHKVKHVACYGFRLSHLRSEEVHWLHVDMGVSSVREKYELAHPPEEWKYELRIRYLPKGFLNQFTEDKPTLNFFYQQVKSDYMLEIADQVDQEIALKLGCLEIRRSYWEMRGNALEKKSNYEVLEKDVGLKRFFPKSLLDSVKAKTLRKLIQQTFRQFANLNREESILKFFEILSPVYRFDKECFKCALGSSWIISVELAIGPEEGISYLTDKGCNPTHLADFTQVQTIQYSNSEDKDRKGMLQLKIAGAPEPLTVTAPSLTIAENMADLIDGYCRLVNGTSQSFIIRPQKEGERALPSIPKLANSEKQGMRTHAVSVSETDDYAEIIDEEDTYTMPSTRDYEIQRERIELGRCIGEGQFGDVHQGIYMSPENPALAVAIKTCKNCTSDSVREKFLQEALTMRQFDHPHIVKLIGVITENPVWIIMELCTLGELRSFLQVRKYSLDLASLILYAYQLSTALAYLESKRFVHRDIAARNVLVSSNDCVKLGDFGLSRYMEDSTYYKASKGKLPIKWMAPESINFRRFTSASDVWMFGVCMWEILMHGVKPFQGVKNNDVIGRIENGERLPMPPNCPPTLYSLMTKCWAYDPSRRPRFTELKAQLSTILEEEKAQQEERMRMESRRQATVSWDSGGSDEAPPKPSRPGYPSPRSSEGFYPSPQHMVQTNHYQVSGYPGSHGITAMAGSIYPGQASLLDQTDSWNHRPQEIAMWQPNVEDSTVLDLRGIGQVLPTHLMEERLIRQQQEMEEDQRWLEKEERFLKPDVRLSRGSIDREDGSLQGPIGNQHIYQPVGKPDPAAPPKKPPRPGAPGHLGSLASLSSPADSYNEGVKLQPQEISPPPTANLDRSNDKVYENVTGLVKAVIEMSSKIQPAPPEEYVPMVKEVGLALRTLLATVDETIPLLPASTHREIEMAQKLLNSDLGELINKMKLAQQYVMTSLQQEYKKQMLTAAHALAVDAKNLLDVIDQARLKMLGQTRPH

ROCK1 (human) = ROCK1 (human) (UniProt Q13464)
RPS6KA2 KD1 KD2 (human) = RPS6KA2 KD1 KD2 (human) (UniProt Q15349)
SLK (human) = SLK (human) (UniProt Q9H2G2)
SRPK1 (human) = SRPK1 (human) (UniProt Q96SB4)
STK33 (human) = STK33 (human) (UniProt Q9BYT3)
TEK (human) = TEK (human) (UniProt Q02763)
TNK2 (human) = TNK2 (human) (UniProt Q07912)
TSSK1B (human) = TSSK1B (human) (UniProt Q9BXA7)
[1] = target: TYK2 JH1 catalytic (human) (UniProt P29597)
WEE1 (human) = WEE1 (human) (UniProt P30291)

AKT1 (human), sequence (P31749 whole entry, looked up): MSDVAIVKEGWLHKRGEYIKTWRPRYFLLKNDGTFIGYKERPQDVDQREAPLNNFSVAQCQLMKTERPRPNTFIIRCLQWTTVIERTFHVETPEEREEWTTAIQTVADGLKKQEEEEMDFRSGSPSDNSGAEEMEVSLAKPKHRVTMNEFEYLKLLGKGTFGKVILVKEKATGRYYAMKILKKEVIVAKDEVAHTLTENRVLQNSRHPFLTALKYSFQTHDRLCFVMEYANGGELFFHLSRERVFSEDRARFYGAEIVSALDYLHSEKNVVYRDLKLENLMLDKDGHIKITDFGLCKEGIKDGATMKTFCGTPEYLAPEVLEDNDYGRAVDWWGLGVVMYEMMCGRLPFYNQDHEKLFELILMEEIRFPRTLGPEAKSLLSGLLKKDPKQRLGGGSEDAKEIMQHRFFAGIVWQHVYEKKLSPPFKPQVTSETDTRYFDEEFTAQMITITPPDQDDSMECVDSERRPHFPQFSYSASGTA

Structure (SMILES): O=C1Nc2ccc(Br)cc2/C1=C\c1cc2c([nH]1)CCCC2
- residual activity (ACVR1B (human)): 99%
- residual activity (AKT1 (human)): 99.8%
- residual activity (AXL (human)): 90%
- residual activity (CAMK1G (human)): 103%
- residual activity (CAMK2A (human)): 93.3%
- residual activity (CAMK2B (human)): 85.8%
- residual activity (CAMK4 (human)): 97.5%
- residual activity (CDC42BPB (human)): 114%
- residual activity (CSNK2A1 (human)): 96.1%
- residual activity (DAPK3 (human)): 92.8%
- residual activity (GSK3A (human)): 88.5%
- residual activity (GSK3B (human)): 94.1%
- residual activity (JAK3 JH1 JH2 (human)): 89.3%
- residual activity (KDR (human)): 70.9%
- residual activity (LTK (human)): 70.6%
- residual activity (MAP2K2 (human)): 92.1%
- residual activity (MAPK12 (human)): 93%
- residual activity (MAPK3 (human)): 95%
- residual activity (MAPK8 (human)): 107%
- residual activity (MAPKAPK3 (human)): 95.1%
- residual activity (MARK3 (human)): 84.9%
- residual activity (MST4 (human)): 87.9%
- residual activity (NEK4 (human)): 80.5%
- residual activity (NTRK1 (human)): 51.8%
- residual activity (NTRK3 (human)): 11.9%
- residual activity (NUAK2 (human)): 133%
- residual activity (PAK7 (human)): 85.4%
- residual activity (PLK3 (human)): 97.8%
- residual activity (PRKACA (human)): 96.5%
- residual activity (PRKCB2 (human)): 85.5%
- residual activity (PRKG1 (human)): 77% and 87.9%
- residual activity (PTK2 (human)): 81.9%
- residual activity (ROCK1 (human)): 98.8%
- residual activity (RPS6KA2 KD1 KD2 (human)): 72%
- residual activity (SLK (human)): 73.4%
- residual activity (SRPK1 (human)): 98.3%
- residual activity (STK33 (human)): 77.3%
- residual activity (TEK (human)): 98.2%
- residual activity (TNK2 (human)): 92.8%
- residual activity (TSSK1B (human)): 36.1%
- residual activity [1]: 86%
- residual activity (WEE1 (human)): 95.9%

Structure (SMILES): Cc1cccc(-c2nc(C(C)(C)C)[nH]c2-c2ccc3c(c2)OCO3)n1
- residual activity (ACVR1B (human)): 31%
- residual activity (AKT1 (human)): 94.6%
- residual activity (AXL (human)): 101%
- residual activity (CAMK1G (human)): 98.7%
- residual activity (CAMK2A (human)): 103%
- residual activity (CAMK2B (human)): 96.2%
- residual activity (CAMK4 (human)): 100%
- residual activity (CDC42BPB (human)): 102%
- residual activity (CSNK2A1 (human)): 98%
- residual activity (DAPK3 (human)): 97%
- residual activity (GSK3A (human)): 93%
- residual activity (GSK3B (human)): 96.8%
- residual activity (JAK3 JH1 JH2 (human)): 92.6%
- residual activity (KDR (human)): 94.7%
- residual activity (LTK (human)): 99.2%
- residual activity (MAP2K2 (human)): 108%
- residual activity (MAPK12 (human)): 95.7%
- residual activity (MAPK3 (human)): 111%
- residual activity (MAPK8 (human)): 95.7%
- residual activity (MAPKAPK3 (human)): 94.1%
- residual activity (MARK3 (human)): 73.9%
- residual activity (MST4 (human)): 95.5%
- residual activity (NEK4 (human)): 94.9%
- residual activity (NTRK1 (human)): 96.5%
- residual activity (NTRK3 (human)): 92.4%
- residual activity (NUAK2 (human)): 138%
- residual activity (PAK7 (human)): 92.7%
- residual activity (PLK3 (human)): 95.6%
- residual activity (PRKACA (human)): 102%
- residual activity (PRKCB2 (human)): 99.9%
- residual activity (PRKG1 (human)): 74.6% and 91%
- residual activity (PTK2 (human)): 98.1%
- residual activity (ROCK1 (human)): 101%
- residual activity (RPS6KA2 KD1 KD2 (human)): 96.4%
- residual activity (SLK (human)): 108%
- residual activity (SRPK1 (human)): 96.5%
- residual activity (STK33 (human)): 89%
- residual activity (TEK (human)): 95.2%
- residual activity (TNK2 (human)): 99.3%
- residual activity (TSSK1B (human)): 103%
- residual activity [1]: 102%
- residual activity (WEE1 (human)): 81.5%

Structure (SMILES): COc1ccc(S(=O)(=O)N(CCO)c2ccccc2CN(C)C/C=C/c2ccc(Cl)cc2)cc1
- residual activity (ACVR1B (human)): 93.2%
- residual activity (AKT1 (human)): 106%
- residual activity (AXL (human)): 104%
- residual activity (CAMK1G (human)): 101%
- residual activity (CAMK2A (human)): 107%
- residual activity (CAMK2B (human)): 100%
- residual activity (CAMK4 (human)): 97.5%
- residual activity (CDC42BPB (human)): 101%
- residual activity (CSNK2A1 (human)): 99.5%
- residual activity (DAPK3 (human)): 101%
- residual activity (GSK3A (human)): 99.9%
- residual activity (GSK3B (human)): 102%
- residual activity (JAK3 JH1 JH2 (human)): 97%
- residual activity (KDR (human)): 101%
- residual activity (LTK (human)): 97.9%
- residual activity (MAP2K2 (human)): 100%
- residual activity (MAPK12 (human)): 98.9%
- residual activity (MAPK3 (human)): 95.1%
- residual activity (MAPK8 (human)): 104%
- residual activity (MAPKAPK3 (human)): 101%
- residual activity (MARK3 (human)): 102%
- residual activity (MST4 (human)): 105%
- residual activity (NEK4 (human)): 98.7%
- residual activity (NTRK1 (human)): 110%
- residual activity (NTRK3 (human)): 95.3%
- residual activity (NUAK2 (human)): 113%
- residual activity (PAK7 (human)): 107%
- residual activity (PLK3 (human)): 99.4%
- residual activity (PRKACA (human)): 104%
- residual activity (PRKCB2 (human)): 102%
- residual activity (PRKG1 (human)): 93.2% and 94.7%
- residual activity (PTK2 (human)): 104%
- residual activity (ROCK1 (human)): 99.7%
- residual activity (RPS6KA2 KD1 KD2 (human)): 99.2%
- residual activity (SLK (human)): 103%
- residual activity (SRPK1 (human)): 105%
- residual activity (STK33 (human)): 97.3%
- residual activity (TEK (human)): 105%
- residual activity (TNK2 (human)): 94.1%
- residual activity (TSSK1B (human)): 103%
- residual activity [1]: 110%
- residual activity (WEE1 (human)): 96%

Structure (SMILES): Cn1c2ccccc2c2c3c(c4c5ccccc5n(CCC#N)c4c21)CNC3=O
- residual activity (ACVR1B (human)): 115%
- residual activity (AKT1 (human)): 108%
- residual activity (AXL (human)): 102%
- residual activity (CAMK1G (human)): 101%
- residual activity (CAMK2A (human)): 19.1%
- residual activity (CAMK2B (human)): 51.3%
- residual activity (CAMK4 (human)): 88.1%
- residual activity (CDC42BPB (human)): 92.1%
- residual activity (CSNK2A1 (human)): 73.1%
- residual activity (DAPK3 (human)): 93.6%
- residual activity (GSK3A (human)): 35.6%
- residual activity (GSK3B (human)): 38.9%
- residual activity (JAK3 JH1 JH2 (human)): 2.44%
- residual activity (KDR (human)): 57%
- residual activity (LTK (human)): 8.79%
- residual activity (MAP2K2 (human)): 92.5%
- residual activity (MAPK12 (human)): 85.8%
- residual activity (MAPK3 (human)): 72.6%
- residual activity (MAPK8 (human)): 78.7%
- residual activity (MAPKAPK3 (human)): 83.7%
- residual activity (MARK3 (human)): 13.9%
- residual activity (MST4 (human)): 89.8%
- residual activity (NEK4 (human)): 49.1%
- residual activity (NTRK1 (human)): 1.64%
- residual activity (NTRK3 (human)): 0.198%
- residual activity (NUAK2 (human)): 40.5%
- residual activity (PAK7 (human)): 37.1%
- residual activity (PLK3 (human)): 88.1%
- residual activity (PRKACA (human)): 83.7%
- residual activity (PRKCB2 (human)): 9.73%
- residual activity (PRKG1 (human)): 80.2% and 84.3%
- residual activity (PTK2 (human)): 77%
- residual activity (ROCK1 (human)): 61.9%
- residual activity (RPS6KA2 KD1 KD2 (human)): 0.299%
- residual activity (SLK (human)): 34.1%
- residual activity (SRPK1 (human)): 98.3%
- residual activity (STK33 (human)): 26.5%
- residual activity (TEK (human)): 104%
- residual activity (TNK2 (human)): 2.78%
- residual activity (TSSK1B (human)): 10.1%
- residual activity [1]: 2.62%
- residual activity (WEE1 (human)): 85.4%
